Source: publication PMC9501899 (Journal of the American Chemical Society, 2022)

What was measured:
[1] = tested on: LRRK2; assay: Western blot screening of PROTACs in WT and G2019S LRRK2 MEFs; type: cell-based, mouse
Protocol: These PROTACs were then biologically evaluated in mouse embryonic fibroblasts (MEFs) by Western blotting. Briefly, MEFs were treated with compounds at 33 nM and 1 μM for 4 h (Figure 2) and 24 h (Figure S2) separately, and the intracellular level of LRRK2, phosphorylated LRRK2 at Ser935, and phosphorylated Rab10 (pRab10) at Thr73 was determined. Rab10[5],[49] is one of the bona fide substrates of LRRK2, whose phosphorylation status is directly affected by the LRRK2 kinase activity and protein level. Phosphorylation of LRRK2 at Ser935 is a well-studied biomarker site used to assess the efficacy of type 1 LRRK2 inhibitors.[30]
Primary MEFs were generated as described in a previous study.[80] Briefly, the uterine horn was collected from adult female mice at day E12.5 and transferred to a 10 cm tissue culture dish containing cold PBS. Two forceps were used to tear the yolk sacs to isolate each embryo. Forceps were cleaned thoroughly with 70% ethanol between each embryo isolation. The embryos were culled, and a tissue piece was collected in a polymerase chain reaction (PCR) tube for genotyping. The red tissue of the embryo was removed, and the remainder was minced with a scalpel blade and incubated with a 7.5 mL trypsin–ethylenediaminetetraacetic acid (EDTA) solution for 10 min in a 37 °C, 5% CO2 tissue culture incubator. The dish was removed from the incubator and checked under a light microscope for single cells. Complete media (7.5 mL) was added to the trypsinized cells, and the cell suspension was transferred to a 15 mL Falcon tube and centrifuged at 1200 rpm for 5 min at room temperature. The trypsin was aspirated, the cell pellet was resuspended in a 5 mL fresh complete media, and the cell suspension was plated in a 60 mm tissue culture dish and incubated in a 37 °C, 5% CO2 tissue culture incubator. The MEFs at this stage were considered as passage 0 and were passaged and expanded for experimental use once the genotype was confirmed by allelic sequencing and immunoblotting. MEFs were cultured in Dulbecco’s modified Eagle’s medium (DMEM) containing 10% (v/v) fetal bovine serum (FBS), 2 mM L-glutamine, 100 U/mL penicillin, and 100 μg/mL streptomycin supplemented with 1× nonessential amino acids and 1 mM sodium pyruvate.
Culturing and passaging of adherent cell lines were carried out using an aseptic technique in CL1 or CL2 (for PBMC isolation) biological safety cabinets. All cells were incubated in a 37 °C incubator with 5% CO2. Cell lines were regularly tested for mycoplasma contamination. For Western blot assay, the cells were seeded in six-well plates.

[2] = target: T1, LRRK2-NanoLuc (Homo sapiens, UniProt Q5S007); assay: NanoBRET binary LRRK2 binding in HEK293 lysate; settings: compound alone, lysate of HEK293 cells, LRRK2 tracer
T1 construct: host or cells: HEK293
Protocol: In the maximum signal control samples (DMSO control), DMSO was added instead of testing compounds.

[3] = tested on: LRRK1, VPS35, PPM1H; assay: TMT-based global proteomic profiling in WT MEFs, LRRK2-related proteins; type: cell-based, mouse; settings: 300 nM, 4 h
[4] = Plasma stability assay; type: in vitro ADME; settings: mouse plasma, 37 °C; read-out: T1/2 in mouse plasma
Protocol: Frozen plasma was thawed at 37 °C and centrifuged at 3000 rpm for 8 min to remove clots, and the supernatant was used in the experiment. The pH of the plasma was recorded, and only the pH range between 7.4 and 8 was used. The plasma and compound solution were prewarmed to 37 °C. Ten microliters of prewarmed testing compound or reference compound (procaine) solution (20 μM in 0.05 mM sodium phosphate buffer (pH 7.4) with 0.5% BSA) was mixed with 90 μL of plasma at different time points to allow for 5, 15, 30, 45, and 60 min of incubation time. For 0 min, the plasma was mixed with vehicle only. Acetonitrile was added to the compound and plasma mixture to quench the reaction, and the resulting mixture was centrifuged (5594g for 15 min). The supernatant was taken and diluted before LC-MS analysis.

T1 sequence (Q5S007 whole entry): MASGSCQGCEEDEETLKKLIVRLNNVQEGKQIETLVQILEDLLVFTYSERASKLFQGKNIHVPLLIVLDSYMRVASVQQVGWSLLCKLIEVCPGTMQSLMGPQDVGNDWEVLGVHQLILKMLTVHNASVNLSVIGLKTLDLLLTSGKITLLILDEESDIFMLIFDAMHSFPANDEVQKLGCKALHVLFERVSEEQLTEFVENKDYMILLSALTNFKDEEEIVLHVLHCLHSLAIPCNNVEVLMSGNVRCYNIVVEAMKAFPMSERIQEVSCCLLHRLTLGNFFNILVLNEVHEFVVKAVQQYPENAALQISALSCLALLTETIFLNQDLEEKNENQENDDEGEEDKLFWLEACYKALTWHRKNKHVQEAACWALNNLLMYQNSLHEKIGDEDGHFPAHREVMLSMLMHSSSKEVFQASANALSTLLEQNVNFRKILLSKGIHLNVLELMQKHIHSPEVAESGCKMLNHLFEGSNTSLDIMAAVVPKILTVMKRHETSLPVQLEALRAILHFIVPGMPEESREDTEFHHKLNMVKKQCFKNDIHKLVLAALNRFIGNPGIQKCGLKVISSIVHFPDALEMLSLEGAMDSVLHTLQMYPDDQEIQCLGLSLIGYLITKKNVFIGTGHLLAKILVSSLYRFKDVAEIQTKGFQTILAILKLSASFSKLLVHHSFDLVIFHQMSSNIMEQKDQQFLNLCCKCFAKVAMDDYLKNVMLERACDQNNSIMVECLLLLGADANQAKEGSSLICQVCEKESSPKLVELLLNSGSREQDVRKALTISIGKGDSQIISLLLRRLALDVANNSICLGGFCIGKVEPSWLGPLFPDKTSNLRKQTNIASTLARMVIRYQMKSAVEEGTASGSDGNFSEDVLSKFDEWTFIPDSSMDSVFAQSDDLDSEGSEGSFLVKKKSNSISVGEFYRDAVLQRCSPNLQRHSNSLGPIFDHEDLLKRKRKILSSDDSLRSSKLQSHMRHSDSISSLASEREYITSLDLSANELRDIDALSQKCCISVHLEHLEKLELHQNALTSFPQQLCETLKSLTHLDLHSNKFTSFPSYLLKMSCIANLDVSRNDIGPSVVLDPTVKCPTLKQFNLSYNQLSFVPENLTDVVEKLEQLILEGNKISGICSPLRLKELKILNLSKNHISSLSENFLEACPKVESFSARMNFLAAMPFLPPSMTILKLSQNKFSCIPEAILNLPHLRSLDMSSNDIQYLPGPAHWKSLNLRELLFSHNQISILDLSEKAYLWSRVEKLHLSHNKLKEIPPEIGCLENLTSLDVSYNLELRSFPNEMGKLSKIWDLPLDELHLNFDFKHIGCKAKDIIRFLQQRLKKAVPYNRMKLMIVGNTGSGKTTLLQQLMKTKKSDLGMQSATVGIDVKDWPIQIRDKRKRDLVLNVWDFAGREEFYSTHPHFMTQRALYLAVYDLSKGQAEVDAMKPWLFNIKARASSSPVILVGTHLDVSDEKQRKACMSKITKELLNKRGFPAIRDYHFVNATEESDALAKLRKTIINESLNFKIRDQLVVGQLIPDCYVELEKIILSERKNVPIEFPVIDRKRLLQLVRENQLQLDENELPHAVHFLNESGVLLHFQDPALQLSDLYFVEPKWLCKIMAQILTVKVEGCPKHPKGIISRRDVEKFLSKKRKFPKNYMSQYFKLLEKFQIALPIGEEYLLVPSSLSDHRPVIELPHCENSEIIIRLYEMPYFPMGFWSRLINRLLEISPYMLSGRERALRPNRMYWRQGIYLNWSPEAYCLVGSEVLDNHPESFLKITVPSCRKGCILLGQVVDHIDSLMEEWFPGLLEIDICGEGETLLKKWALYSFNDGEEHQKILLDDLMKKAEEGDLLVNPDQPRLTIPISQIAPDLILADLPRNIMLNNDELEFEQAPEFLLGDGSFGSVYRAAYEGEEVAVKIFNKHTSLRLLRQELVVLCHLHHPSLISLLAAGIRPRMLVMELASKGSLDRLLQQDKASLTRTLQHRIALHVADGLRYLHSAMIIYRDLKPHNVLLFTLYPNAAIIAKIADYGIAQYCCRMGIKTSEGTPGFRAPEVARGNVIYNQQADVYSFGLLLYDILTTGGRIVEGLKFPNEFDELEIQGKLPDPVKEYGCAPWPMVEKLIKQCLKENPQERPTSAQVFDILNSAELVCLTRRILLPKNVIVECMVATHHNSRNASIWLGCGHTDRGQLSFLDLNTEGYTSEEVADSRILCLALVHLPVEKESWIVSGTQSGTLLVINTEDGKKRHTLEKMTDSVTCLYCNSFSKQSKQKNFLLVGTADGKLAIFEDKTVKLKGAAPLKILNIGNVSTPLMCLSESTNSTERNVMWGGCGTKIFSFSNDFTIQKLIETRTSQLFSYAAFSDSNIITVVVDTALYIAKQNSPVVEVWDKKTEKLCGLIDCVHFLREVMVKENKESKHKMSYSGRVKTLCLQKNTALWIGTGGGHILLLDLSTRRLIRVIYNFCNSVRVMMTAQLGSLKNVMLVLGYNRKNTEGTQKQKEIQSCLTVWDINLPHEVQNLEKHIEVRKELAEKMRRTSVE

SMILES | degradation of LRRK2 ([1]; 0.033 µM) [%] | degradation of LRRK2 (in words) ([1]; 33 nM/4 h, WT and G2019S LRRK2 MEFs) | IC50 [2] [µM] | levels of LRRK1, VPS35 and PPM1H (in words) [3] | half-life at 2 µM [4] [h]
CNc1nc(Nc2ccc(C(=O)N3CCN(CCOCCOCCSC(C)(C)[C@H](NC(=O)C4(F)CC4)C(=O)N4C[C@H](O)C[C@H]4C(=O)NCc4ccc(-c5scnc5C)cc4)CC3)cc2OC)ncc1Cl [SD75] | < 40 | little to no degradation | – | – | –
CNc1nc(Nc2ccc(C(=O)N3CCN(C[C@H]4CC[C@H](CSC(C)(C)[C@H](NC(=O)C5(F)CC5)C(=O)N5C[C@H](O)CC5C(=O)NCc5ccc(-c6scnc6C)cc5)CC4)CC3)cc2OC)ncc1Cl (stereo partly drawn) [XL01126, (2S,4R)-1-((R)-3-((((1R,4R)-4-((4-(4-((5-Chloro-4-(methylamino)pyrimidin-2-yl)amino)-3-methoxybenzoyl)piperazin-1-yl)methyl)cyclohexyl)methyl)thio)-2-(1-fluorocyclopropane-1-carboxamido)-3-methylbutanoyl)-4-hydroxy-N-(4-(4-methylthiazol-5-yl)benzyl)pyrrolidine-2-carboxamide] | – | – | 2 | remained unaffected | 1.8
